Reference: patent US20210355532A1, “METHODS AND REAGENTS FOR DETECTING AND ASSESSING GENOTOXICITY” (TwinStrand Biosciences, Inc., priority 2018, published 2021)
“Also recorded” adds a separate entry of the source.

Key:
Assay type in all cases: in vivo, mouse
[1] = system: BigBlue® transgenic C57BL/6 male mice; test: Duplex Sequencing mutant frequency and spectrum in BigBlue transgenic mice (cII transgene and endogenous genes)
Description: Tissues were collected and frozen on study day 31. Liver and bone marrow were analyzed for mutants. DNA was isolated and mutants analyzed for cII mutant plaques using RecoverEase and Transpack methods described by Agilent Technologies. Duplex Sequencing was used to sequence cII and other endogenous genes for mutations in liver and bone marrow.
Genes evaluated and criteria used to select genes are as follows: (1) Polr1c (RNA polymerase), which is ubiquitously transcribed in all tissue types; (2) Rho (Rhodopsin), which is not expressed in any tissue besides retina; (3) Hp (Haptoglobin), which is highly expressed in liver, but almost nowhere else; (4) Ctnnb1 (Beta-catenin), which is most commonly mutated gene in human hepatocellular carcinoma; and (5) CII: 360 bp transgenic reporter gene present in ˜80 copies in BigBlue® mice.
FIGS. 3A-3D are box plot graphs showing mutant frequencies calculated for Duplex Sequencing (FIGS. 3A and 3B) and the BigBlue® cII plaque assay (FIGS. 3C and 3D) in liver and bone marrow following mutagen treatment as described above. MF for Duplex Sequencing was based on total mutants per duplex base-pair sequenced (n=5 mice/group). MF for BigBlue® was calculated as number of mutant plaques relative to number of […] (n=6 mice/group).

[2] = system: Tg.rasH2 mice; test: Duplex Sequencing mutant frequency and spectrum in Tg.rasH2 mice dosed with urethane; conditions: for Mutation Frequency: urethane day 1,3,5, sacrifice day 29, Duplex Sequencing
Source text: (§1) In this example, the impact of a urethane is examined in different mouse tissue types (lung, spleen, blood) in an FDA-approved cancer-predisposed mouse model: Tg.rasH2 (Saitoh et al. Oncogene 1990. PMID 2202951). This mouse contains ˜3 tandem copies of human Hras with an activating enhancer mutation to boost expression on one hemizygous allele. These mice are predisposed to splenic angiosarcomas and lung adenocarcinomas, and are routinely used for 6 month carcinogenicity studies to substitute for 2 year native animal studies. Tumors found in the mice have usually acquired activating mutations in one copy of the human Hras protooncogene. In this addition to the 4 native mouse genes (Rho, Hp, Ctnnb1, Polr1c), the native mouse Hras and human Hras transgene are also analyzed in this example.
(§2) In this example, Tg.rasH2 mice (n=5/group) were dosed with vehicle or a carcinogenic dose of urethane (day 1,3,5) and sacrificed on day 29 for mutation detection by Duplex Sequencing in target tissues (lung, spleen) and whole blood. The endogenous genes (Rho, Hp, Ctnnb1, Polr1c) and the native mouse and human Hras (trans)genes were also sequenced.
FIG. 8 is a bar graph showing mutant frequency (MF) of lung, spleen and blood samples for control and experimental animals subjected to urethane. In this analysis, every unique variant detected was counted as one mutation, which were summed per sample. This was divided by the total number of Duplex Bases sequenced and across the entire capture region. The number of events is noted above each sample. In total, across all 30 samples, 3,966,947,832 Duplex Sequenced base pairs were generated.
Referring to FIG. 9 and Table 1 together, differences between vehicle control (VC) and treatment groups were highly significant. A Welch's t-test (for unequal variances) was used to determine the significance of the mutagen treated tissue's mutant frequency over that of the control for that tissue. The slightly wider confidence intervals with blood reflects a lower average depth of sequencing in the blood VC samples in this particular example. It is anticipated that this can be corrected using the methods described herein.

[3] = system: human HRAS transgene codon 61; test: Duplex Sequencing detection of clonal oncogenic mutations in human HRAS transgene of Tg.rasH2 mice; conditions: day 29
Source text: as §1, §2
FIG. 15A is a graph illustrating SNVs plotted over the genomic intervals for the exons captured from the Ras family of genes, including the human transgenic loci, in the Tg-rasH2 mouse model. Singlets are mutations found in a single molecule. Multiplets are an identical mutation identified within multiple molecules within the same sampler and may represent a clonal expansion event. The height of each point corresponds to the variant allele frequency (VAF) of each SNV, with the with the size of the point corresponds to the for multiplet observations only. The location and relative frequency of Ras family human cancer mutational hotspots in COSMIC are indicated below each gene. FIG. 15B is a graph illustrating single nucleotide variants (SNVs) aligning to exon 3 of the human HRAS transgene. Highlighted is the center residue in codon number 61 in exon 3 of human HRAS, the most common HRAS cancer-driving hotspot.

SMILES | MF in 4 endogenous genes (Polr1c, rhodopsin, haptoglobin, beta-catenin) ([1]; BigBlue mice, liver and bone marrow) | Mutation spectrum, distinguishing mutation types ([1]; aggregated across all genes, all tissues, unsupervised cluster analysis) | Mutation load relative to controls ([1]; bone marrow and liver, cII transgene, BigBlue mice, study day 31) | Trinucleotide context hotspots (most vulnerable contexts) ([1]; trinucleotide spectra, BigBlue mice) | Fold Increase of mutation frequency over vehicle control ([2]; Blood) [x] | Mutation Frequency ([2]; Blood, Tg.rasH2 mice) | Fold Increase of mutation frequency over vehicle control ([2]; Lung) [x] | Mutation Frequency ([2]; Lung, Tg.rasH2 mice) | Fold Increase of mutation frequency over vehicle control ([2]; Spleen) [x] | Mutation Frequency ([2]; Spleen, Tg.rasH2 mice) | Trinucleotide (triplet) mutation spectrum, predominant mutation ([2]; lung, spleen, blood, Tg.rasH2 mice) | Variant allele frequencies of HRAS codon 61 mutation ([3]; four out of five treated lung samples) | Fraction of treated samples with T>A transversions at human oncogenic Hras codon 61 hotspot ([3]; lung samples) | Fraction of treated samples with T>A transversions at human oncogenic Hras codon 61 hotspot ([3]; splenic samples)
CCN(N=O)C(N)=O [ENU, N-ethyl-N-nitrosourea] | increased | preponderance of T→C, T→A, and C→T mutations | significantly increased relative to controls | GTS and GTG and GTC | – | – | – | – | – | – | – | – | – | –
CCOC(N)=O [Urethane, urethane] | – | – | – | – | 2.2 | 2.39e−07 | 7.5 | 5.04e−07 | 3.3 | 2.73e−07 | T:A→A:T within the motif “NTG” is shown as the most common mutation; also recorded: strong propensity for T→A and T→C mutations within the context of “NTG” | 0.1%-1.8% | ⅘ | ⅕
